Measured values published in PubChem BioAssay AID2060616 (Molecular Pharmacology Branch, DTP, NCI, 2025).

System: 377384-186-R-J1-PDC complex spheroid viability
Assay: Anticancer human tumor 377384-186-R-J1-PDC patient-derived pancreatic carcinoma cell line growth inhibition [CLK]
Settings: for IC50: curve of first compound; for viability, T/C: stronger effect = lower value
In short: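 Patient-derived tumor cells grown as complex spheroids with HUVEC endothelial cells and mesenchymal stem cells, treated with drug combinations. Concentrations descend in half-log steps from near clinical Cmax, or from 10 microM if Cmax unknown.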

[1] = second compound 0.0316 µM, first compound 0.0316 µM
[2] = second compound 0.0316 µM, first compound 0.1 µM
[3] = second compound 0.0316 µM, first compound 0.316 µM
[4] = second compound 0.0316 µM, first compound 1 µM
[5] = second compound 0.0316 µM, first compound 3.16 µM
[6] = second compound 0.0316 µM, first compound 10 µM
[7] = second compound 0.1 µM, first compound 0.0316 µM
[8] = second compound 0.1 µM, first compound 0.1 µM
[9] = second compound 0.1 µM, first compound 0.316 µM
[10] = second compound 0.1 µM, first compound 1 µM
[11] = second compound 0.1 µM, first compound 3.16 µM
[12] = second compound 0.1 µM, first compound 10 µM
[13] = second compound 0.316 µM, first compound 0.0316 µM
[14] = second compound 0.316 µM, first compound 0.1 µM
[15] = second compound 0.316 µM, first compound 0.316 µM
[16] = second compound 0.316 µM, first compound 1 µM
[17] = second compound 0.316 µM, first compound 3.16 µM
[18] = second compound 0.316 µM, first compound 10 µM
[19] = second compound 1 µM, first compound 0.0316 µM
[20] = second compound 1 µM, first compound 0.1 µM
[21] = second compound 1 µM, first compound 0.316 µM
[22] = second compound 1 µM, first compound 1 µM
[23] = second compound 1 µM, first compound 3.16 µM
[24] = second compound 1 µM, first compound 10 µM
[25] = second compound 3.16 µM, first compound 0.0316 µM
[26] = second compound 3.16 µM, first compound 0.1 µM
[27] = second compound 3.16 µM, first compound 0.316 µM
[28] = second compound 3.16 µM, first compound 1 µM
[29] = second compound 3.16 µM, first compound 3.16 µM
[30] = second compound 3.16 µM, first compound 10 µM
[31] = second compound 10 µM, first compound 0.0316 µM
[32] = second compound 10 µM, first compound 0.1 µM
[33] = second compound 10 µM, first compound 0.316 µM
[34] = second compound 10 µM, first compound 1 µM
[35] = second compound 10 µM, first compound 3.16 µM
[36] = second compound 10 µM, first compound 10 µM
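Further: spheroids exposed to agents for 7 days before reading.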
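Wherever viability, T/C is given: luminescence signal used as a stand-in for viable cells.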

`C=CC(=O)Nc1cc(Nc2nccc(-c3cn(C)c4ccccc34)n2)c(OC)cc1N(C)CCN(C)C` + CNC(=O)c1ccc(Nc2nc(OC3CCCC3)c3c(-c4ccc5nc(C)oc5c4)c[nH]c3n2)c(OC)c1 was tested, and the IC50 (second compound 0.0316 µM) was > 300 nM, the IC50 (second compound 0.1 µM) was 53.1 nM and the IC50 (second compound 0.316 µM) was < 0.949 nM. The IC50 (second compound 1 µM) was < 0.949 nM, the IC50 (second compound 3.16 µM) was < 0.949 nM and the IC50 (second compound 10 µM) was < 0.949 nM. It also gave a viability, T/C (second compound 0.0316 µM, first compound 0.000949 µM) of 91.5%, a viability, T/C (second compound 0.0316 µM, first compound 0.003 µM) of 109% and a viability, T/C (second compound 0.0316 µM, first compound 0.00949 µM) of 99.2%. It also gave a viability, T/C (second compound 0.0316 µM, first compound 0.03 µM) of 103%, a viability, T/C (second compound 0.0316 µM, first compound 0.0949 µM) of 86.3% and a viability, T/C (second compound 0.0316 µM, first compound 0.3 µM) of 59%. It also gave a viability, T/C (second compound 0.1 µM, first compound 0.000949 µM) of 64.1%, a viability, T/C (second compound 0.1 µM, first compound 0.003 µM) of 63.5% and a viability, T/C (second compound 0.1 µM, first compound 0.00949 µM) of 55.7%. For the same molecule, the viability, T/C (second compound 0.1 µM, first compound 0.03 µM) was 59.4%, the viability, T/C (second compound 0.1 µM, first compound 0.0949 µM) was 42.8% and the viability, T/C (second compound 0.1 µM, first compound 0.3 µM) was 29.7%. It also gave a viability, T/C (second compound 0.316 µM, first compound 0.000949 µM) of 20.6%, a viability, T/C (second compound 0.316 µM, first compound 0.003 µM) of 23.6% and a viability, T/C (second compound 0.316 µM, first compound 0.00949 µM) of 20.6%. For the same molecule, the viability, T/C (second compound 0.316 µM, first compound 0.03 µM) was 17.2%, the viability, T/C (second compound 0.316 µM, first compound 0.0949 µM) was 17.3% and the viability, T/C (second compound 0.316 µM, first compound 0.3 µM) was 17%. The viability, T/C (second compound 1 µM, first compound 0.000949 µM) was 17.7%, the viability, T/C (second compound 1 µM, first compound 0.003 µM) was 18.1% and the viability, T/C (second compound 1 µM, first compound 0.00949 µM) was 21.8%. For the same molecule, the viability, T/C (second compound 1 µM, first compound 0.03 µM) was 19.2%, the viability, T/C (second compound 1 µM, first compound 0.0949 µM) was 16.7% and the viability, T/C (second compound 1 µM, first compound 0.3 µM) was 16.7%. For the same molecule, the viability, T/C (second compound 3.16 µM, first compound 0.000949 µM) was 20.1%, the viability, T/C (second compound 3.16 µM, first compound 0.003 µM) was 20.9% and the viability, T/C (second compound 3.16 µM, first compound 0.00949 µM) was 21.1%. For the same molecule, the viability, T/C (second compound 3.16 µM, first compound 0.03 µM) was 19.5%, the viability, T/C (second compound 3.16 µM, first compound 0.0949 µM) was 17.9% and the viability, T/C (second compound 3.16 µM, first compound 0.3 µM) was 14.8%. The viability, T/C (second compound 10 µM, first compound 0.000949 µM) was 18.9%, the viability, T/C (second compound 10 µM, first compound 0.003 µM) was 21.2% and the viability, T/C (second compound 10 µM, first compound 0.00949 µM) was 18.1%. The viability, T/C (second compound 10 µM, first compound 0.03 µM) was 19.4%, the viability, T/C (second compound 10 µM, first compound 0.0949 µM) was 17.6% and the viability, T/C (second compound 10 µM, first compound 0.3 µM) was 15.3%.
For `CC(Nc1ccc2c(c1)OCCn1cc(N3C(=O)OCC3C(F)F)nc1-2)C(N)=O` (stereo not drawn) + CNC(=O)c1ccc(Nc2nc(OC3CCCC3)c3c(-c4ccc5nc(C)oc5c4)c[nH]c3n2)c(OC)c1, the IC50 (second compound 0.0316 µM) was 905 nM, the IC50 (second compound 0.1 µM) was 221 nM and the IC50 (second compound 0.316 µM) was < 31.6 nM. The IC50 (second compound 1 µM) was < 31.6 nM, the IC50 (second compound 3.16 µM) was < 31.6 nM and the IC50 (second compound 10 µM) was < 31.6 nM. The viability, T/C [1] was 84.8%, the viability, T/C [2] was 90.6% and the viability, T/C [3] was 71.2%. The viability, T/C [4] was 49.1%, the viability, T/C [5] was 41.6% and the viability, T/C [6] was 41.2%. For the same molecule, the viability, T/C [7] was 59%, the viability, T/C [8] was 61.5% and the viability, T/C [9] was 41.7%. For the same molecule, the viability, T/C [10] was 42.8%, the viability, T/C [11] was 33.4% and the viability, T/C [12] was 29%. For the same molecule, the viability, T/C [13] was 21.1%, the viability, T/C [14] was 20.5% and the viability, T/C [15] was 18.4%. It also gave a viability, T/C [16] of 15%, a viability, T/C [17] of 13.5% and a viability, T/C [18] of 14%. It also gave a viability, T/C [19] of 18.1%, a viability, T/C [20] of 14.4% and a viability, T/C [21] of 14.4%. The viability, T/C [22] was 14.8%, the viability, T/C [23] was 12.8% and the viability, T/C [24] was 12.6%. For the same molecule, the viability, T/C [25] was 17.7%, the viability, T/C [26] was 18.5% and the viability, T/C [27] was 18%. For the same molecule, the viability, T/C [28] was 14.2%, the viability, T/C [29] was 13.1% and the viability, T/C [30] was 11.8%. The viability, T/C [31] was 16.1%, the viability, T/C [32] was 17.5% and the viability, T/C [33] was 14.1%. It also gave a viability, T/C [34] of 15.6%, a viability, T/C [35] of 13.4% and a viability, T/C [36] of 11.6%.
For `CCN1CCN(Cc2ccc(Nc3ncc(F)c(-c4cc(F)c5nc(C)n(C(C)C)c5c4)n3)nc2)CC1` + CNC(=O)c1ccc(Nc2nc(OC3CCCC3)c3c(-c4ccc5nc(C)oc5c4)c[nH]c3n2)c(OC)c1, the IC50 (second compound 0.0316 µM) was 299 nM, the IC50 (second compound 0.1 µM) was 17.4 nM and the IC50 (second compound 0.316 µM) was < 3.16 nM. The IC50 (second compound 1 µM) was < 3.16 nM, the IC50 (second compound 3.16 µM) was < 3.16 nM and the IC50 (second compound 10 µM) was < 3.16 nM. It also gave a viability, T/C (second compound 0.0316 µM, first compound 0.00316 µM) of 105%, a viability, T/C (second compound 0.0316 µM, first compound 0.01 µM) of 84.2% and a viability, T/C [1] of 80%. For the same molecule, the viability, T/C [2] was 66.7%, the viability, T/C [3] was 44.6% and the viability, T/C [4] was 37.4%. It also gave a viability, T/C (second compound 0.1 µM, first compound 0.00316 µM) of 58.9%, a viability, T/C (second compound 0.1 µM, first compound 0.01 µM) of 53.9% and a viability, T/C [7] of 45.8%. For the same molecule, the viability, T/C [8] was 41.1%, the viability, T/C [9] was 34.4% and the viability, T/C [10] was 29.3%. The viability, T/C (second compound 0.316 µM, first compound 0.00316 µM) was 19.5%, the viability, T/C (second compound 0.316 µM, first compound 0.01 µM) was 18.5% and the viability, T/C [13] was 21.5%. For the same molecule, the viability, T/C [14] was 19.9%, the viability, T/C [15] was 24.6% and the viability, T/C [16] was 22.4%. For the same molecule, the viability, T/C (second compound 1 µM, first compound 0.00316 µM) was 18.6%, the viability, T/C (second compound 1 µM, first compound 0.01 µM) was 23.3% and the viability, T/C [19] was 20.4%. The viability, T/C [20] was 20.8%, the viability, T/C [21] was 20.1% and the viability, T/C [22] was 23.3%. It also gave a viability, T/C (second compound 3.16 µM, first compound 0.00316 µM) of 20.1%, a viability, T/C (second compound 3.16 µM, first compound 0.01 µM) of 22.1% and a viability, T/C [25] of 19.7%. For the same molecule, the viability, T/C [26] was 18.9%, the viability, T/C [27] was 18.9% and the viability, T/C [28] was 18.7%. The viability, T/C (second compound 10 µM, first compound 0.00316 µM) was 20.3%, the viability, T/C (second compound 10 µM, first compound 0.01 µM) was 18% and the viability, T/C [31] was 16.9%. For the same molecule, the viability, T/C [32] was 17.8%, the viability, T/C [33] was 22% and the viability, T/C [34] was 25.9%.
For `Nc1ccccc1NC(=O)c1ccc(CNC(=O)OCc2cccnc2)cc1` + CNC(=O)c1ccc(Nc2nc(OC3CCCC3)c3c(-c4ccc5nc(C)oc5c4)c[nH]c3n2)c(OC)c1, the IC50 (second compound 0.0316 µM) was 434 nM, the IC50 (second compound 0.1 µM) was 128 nM and the IC50 (second compound 0.316 µM) was < 31.6 nM. The IC50 (second compound 1 µM) was < 31.6 nM, the IC50 (second compound 3.16 µM) was < 31.6 nM and the IC50 (second compound 10 µM) was < 31.6 nM. For the same molecule, the viability, T/C [1] was 94.4%, the viability, T/C [2] was 75.5% and the viability, T/C [3] was 62.5%. For the same molecule, the viability, T/C [4] was 26.7%, the viability, T/C [5] was 11.9% and the viability, T/C [6] was 1.2%. It also gave a viability, T/C [7] of 57.9%, a viability, T/C [8] of 57.2% and a viability, T/C [9] of 35.9%. It also gave a viability, T/C [10] of 30.2%, a viability, T/C [11] of 12.3% and a viability, T/C [12] of 1.53%. The viability, T/C [13] was 24.8%, the viability, T/C [14] was 23.2% and the viability, T/C [15] was 18%. For the same molecule, the viability, T/C [16] was 19.4%, the viability, T/C [17] was 9.99% and the viability, T/C [18] was 1.4%. The viability, T/C [19] was 22.6%, the viability, T/C [20] was 23% and the viability, T/C [21] was 19.7%. For the same molecule, the viability, T/C [22] was 21.5%, the viability, T/C [23] was 12.6% and the viability, T/C [24] was 1.83%. For the same molecule, the viability, T/C [25] was 20.9%, the viability, T/C [26] was 21.6% and the viability, T/C [27] was 21.7%. The viability, T/C [28] was 16.9%, the viability, T/C [29] was 12.1% and the viability, T/C [30] was 0.82%. The viability, T/C [31] was 20.6%, the viability, T/C [32] was 22.9% and the viability, T/C [33] was 19%. For the same molecule, the viability, T/C [34] was 18.6%, the viability, T/C [35] was 13.7% and the viability, T/C [36] was 1.29%.
